For assay [1], the system named is MITF levels in MKN45 cells. In words: Immunoblotting of MITF in METTL10-knockdown cells treated with MG132. The conditions noted are these: MG132 5 µM for 5 hours. The format is cell-based. The protocol:
(§1) Protein extraction from tissues or cells was performed by lysis buffer (20 mM Tris‐HCl (pH 7.5), 150 mM NaCl, 1 mM EDTA, 1 mM EGTA, 2.5 mM sodium pyrophosphate, 1 mM β‐glycerolphosphate, 1% Triton X‐100) supplemented with 1% phenylmethylsulfonyl fluoride (PMSF; Solarbio, P0100) and protease inhibitor cocktail (Apexbio, K1007) and lysed at 4 °C for 60 min, followed by centrifugation at 12000 g for 15 min at 4 °C. For Immunoblotting, the protein concentration was determined using the Pierce BCA Protein Assay Kit (Thermo Fisher Scientific, A55864). The protein samples were denatured by boiling in SDS‐PAGE loading buffer. For immunoprecipitation, antibodies were incubated with Dynabeads Protein G (Thermo, 10004D) at 4 °C for 4 h. The supernatant was then incubated with magnetic beads conjugated with antibodies or anti‐FLAG‐M2 magnetic beads (Sigma–Aldrich, M8823) at 4 °C overnight. Following incubation, the magnetic beads were washed three times with lysis buffer and then boiled in SDS‐PAGE loading buffer. The proteins were separated by sodium dodecyl sulfate polyacrylamide gel electrophoresis (SDS‐PAGE) with One‐Step PAGE Gel Fast Preparation Kit (Vazyme), and then transferred to the PVDF Membrane (Bio‐Rad). After blocking with a protein‐free rapid blocking buffer (Epizyme, PS108P) for 15 min, the membranes were incubated with primary antibodies at 4 °C overnight. […]
On the technique in general: A western blot detects proteins with antibodies after separation by electrophoresis.

Assay [2] has as its system MITF protein levels in HA-PIAS3-overexpressing MKN45 cells. In words: Immunoblotting of MITF in PIAS3-overexpressing cells treated with MG132. The format is cell-based. The following applies: MG132 5 µM for 5 h. Here is the method:
as §1

Each structure is given as a SMILES string. Residues, ends and D or L forms follow the SMILES beside them. *: point of attachment. Cbz = O=C(OCc1ccccc1)*

As to `CC(C)C[C@@H](C=O)NC(=O)[C@H](CC(C)C)NC(=O)[C@H](CC(C)C)NC(=O)OCc1ccccc1` [MG132] (Cbz-Leu-Leu-Leu-aldehyde), in assay [1], the “Effect on decrease in MITF levels caused by knockdown of METTL10” value is “completely eliminated the decrease in MITF levels”. Further, in assay [2], the “PIAS3-mediated degradation of MITF” value is “inhibited”.

The values are drawn from PMC12752606, “METTL10‐Mediated PIAS3 Methylation Links Purine Metabolism to Gastric Cancer Progression” (Advanced Science, 2025).
